In publication PMC7999658, “Characterization of P-Glycoprotein Inhibitors for Evaluating the Effect of P-Glycoprotein on the Intestinal Absorption of Drugs” (Pharmaceutics, 2021):
Read-outs that look alike come from different tables or passages of the source. One block for each compound: values may come before it.

Assays:
[1] = target: T1, P-gp (Homo sapiens, UniProt P08183); test: Inhibition of P-gp-mediated transport of paclitaxel across Caco-2 cell monolayers; format: cell-based
T1 construct: host or cells: Caco-2
Protocol: Caco-2 cells from Dainippon Sumitomo Pharma (Osaka, Japan) were cultured in DMEM supplemented with 10% heat-inactivated fetal bovine serum, 1% antibiotic-antimycotic, 1% nonessential amino acids, and 2 mM L-glutamine [31]. Cells were maintained at 37 °C in 5% CO2/95% air and passaged upon reaching approximately 80% confluence using 0.25% trypsin/1 mM EDTA solution. For transport experiments, Caco-2 cells were grown on a polyethylene terephthalate insert (0.4 μm pore size, 12 mm diameter) at 1.0 × 10^5 cells/well, and cultured for 14–21 days with the replacement of the medium once every 2 days. Caco-2 cells used in this study were within the passage range of 55 through 70.
(§1) The efflux ratio (ER) was calculated using Equation (3) ER = Papp,BA/Papp,AB(3) where Papp,AB and Papp,BA are the Papp values for AP-to-BL and BL-to-AP transport, respectively.
(§2) IC50 values of Papp,BA and ER were also determined using Equation (4).

[2] = target: T2, BCRP (Homo sapiens, UniProt Q9UNQ0); test: Inhibition of BCRP-mediated transport of mitoxantrone across Caco-2 cell monolayers; details: Caco-2 monolayers
T2 sequence (Q9UNQ0 1-655): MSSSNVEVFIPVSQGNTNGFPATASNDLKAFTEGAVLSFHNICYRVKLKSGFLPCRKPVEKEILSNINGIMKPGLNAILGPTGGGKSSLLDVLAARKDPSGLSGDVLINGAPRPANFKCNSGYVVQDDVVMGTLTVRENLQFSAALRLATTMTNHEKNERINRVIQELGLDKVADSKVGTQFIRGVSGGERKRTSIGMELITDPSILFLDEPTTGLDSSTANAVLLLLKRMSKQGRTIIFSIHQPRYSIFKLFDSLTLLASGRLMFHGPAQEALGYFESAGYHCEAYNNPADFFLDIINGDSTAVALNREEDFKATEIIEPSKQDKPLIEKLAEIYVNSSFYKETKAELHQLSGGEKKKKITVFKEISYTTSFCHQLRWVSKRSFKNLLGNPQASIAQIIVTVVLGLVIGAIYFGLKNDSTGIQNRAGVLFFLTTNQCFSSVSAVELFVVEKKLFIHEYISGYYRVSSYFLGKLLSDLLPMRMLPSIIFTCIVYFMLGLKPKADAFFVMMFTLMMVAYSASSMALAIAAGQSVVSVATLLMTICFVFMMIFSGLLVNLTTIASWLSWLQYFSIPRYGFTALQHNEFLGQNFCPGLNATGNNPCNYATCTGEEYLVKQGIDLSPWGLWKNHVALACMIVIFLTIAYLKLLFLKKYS
Protocol: For transport experiments, Caco-2 cells were grown on a polyethylene terephthalate insert (0.4 μm pore size, 12 mm diameter) at 1.0 × 10^5 cells/well, and cultured for 14–21 days with the replacement of the medium once every 2 days. Caco-2 cells used in this study were within the passage range of 55 through 70.
as §1, §2

[3] = test system: P-gp; parameters: method as in PMID 18678495; details: cited from earlier work
[4] = for BA of paclitaxel: paclitaxel 20 mg/kg po vs 5 mg/kg IV
[5] = paclitaxel 10 mg/kg po
[6] = in vivo; details: FVB, mouse
[7] = in vivo; details: FVB, mouse, oral, 10 mg/kg
[8] = topotecan 2 mg/kg po; for concentration at 30 min: FVB, mouse, oral, 2 mg/kg
Protocol: Food and water were available ad libitum.
The flow rate was 1.0 mL/min.

[9] = test system: Caco-2 cell monolayers; test: Caco-2 monolayer transport study: paracellular marker permeability and mass balance (% recovery); format: in vitro ADME, human; details: Caco-2 monolayers, lucifer yellow 100 μM
[10] = Caco-2 monolayers, 50% decrease of efflux ratio, read-out: IC50 on ER of paclitaxel
[11] = Caco-2 monolayers, paclitaxel 5 μM, 50% decrease of Papp,BA, read-out: IC50 on Papp,BA of paclitaxel
[12] = Caco-2 monolayers, paclitaxel 5 μM, inhibitor concentration to achieve 50% increase of Papp,AB, read-out: IC50 on Papp,AB of paclitaxel
[13] = IC50 on Papp,BA of mitoxantrone, mitoxantrone 5 μM, 50% decrease of Papp,BA
[14] = paclitaxel 20 mg/kg po, WT mice
[15] = portal vein plasma, po, 20 mg/kg
[16] = systemic (abdominal vein) plasma, po, 20 mg/kg
[17] = male, portal vein plasma, po, 20 mg/kg
[18] = male, systemic (abdominal vein) plasma, po, 20 mg/kg
[19] = systemic (abdominal vein) plasma
[20] = male, systemic (abdominal vein) plasma

T1 sequence (P08183 whole entry): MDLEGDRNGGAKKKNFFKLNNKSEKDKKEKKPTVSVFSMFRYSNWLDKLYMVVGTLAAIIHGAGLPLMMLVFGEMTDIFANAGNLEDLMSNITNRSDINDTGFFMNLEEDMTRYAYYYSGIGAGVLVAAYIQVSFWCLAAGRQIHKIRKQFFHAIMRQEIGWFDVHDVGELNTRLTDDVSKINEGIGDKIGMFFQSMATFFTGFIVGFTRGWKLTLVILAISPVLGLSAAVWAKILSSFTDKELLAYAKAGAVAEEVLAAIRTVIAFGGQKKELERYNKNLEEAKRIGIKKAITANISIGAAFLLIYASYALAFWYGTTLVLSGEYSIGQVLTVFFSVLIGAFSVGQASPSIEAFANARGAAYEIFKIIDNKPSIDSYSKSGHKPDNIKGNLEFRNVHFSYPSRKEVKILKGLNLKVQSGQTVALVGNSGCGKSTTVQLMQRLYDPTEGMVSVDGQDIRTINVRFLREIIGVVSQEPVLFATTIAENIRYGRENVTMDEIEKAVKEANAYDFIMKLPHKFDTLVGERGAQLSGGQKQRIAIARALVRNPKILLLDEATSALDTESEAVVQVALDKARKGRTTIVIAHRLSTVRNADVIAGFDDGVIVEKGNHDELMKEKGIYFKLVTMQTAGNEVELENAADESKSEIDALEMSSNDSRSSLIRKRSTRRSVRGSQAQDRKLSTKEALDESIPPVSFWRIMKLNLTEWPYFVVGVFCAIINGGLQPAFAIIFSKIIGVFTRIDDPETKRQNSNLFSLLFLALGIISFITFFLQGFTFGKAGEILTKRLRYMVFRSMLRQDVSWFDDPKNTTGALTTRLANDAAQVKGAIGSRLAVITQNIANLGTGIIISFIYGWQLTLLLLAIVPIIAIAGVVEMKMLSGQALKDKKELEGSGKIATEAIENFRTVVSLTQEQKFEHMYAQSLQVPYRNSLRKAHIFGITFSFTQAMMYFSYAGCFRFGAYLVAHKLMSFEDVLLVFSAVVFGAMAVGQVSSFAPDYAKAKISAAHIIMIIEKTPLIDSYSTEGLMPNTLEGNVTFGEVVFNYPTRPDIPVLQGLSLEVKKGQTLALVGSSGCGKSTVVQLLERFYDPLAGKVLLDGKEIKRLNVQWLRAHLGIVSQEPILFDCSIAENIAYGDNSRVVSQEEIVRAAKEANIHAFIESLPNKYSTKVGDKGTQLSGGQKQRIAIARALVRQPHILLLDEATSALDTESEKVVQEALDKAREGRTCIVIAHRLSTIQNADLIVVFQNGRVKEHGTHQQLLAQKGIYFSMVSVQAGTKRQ

Compound: CCOC/C=C/c1ccc(-c2nc(-c3ccc(NC(C)C)cc3)c(-c3ccc(NC(C)C)cc3)[nH]2)cc1 [OC144-093, (E)-4,4’-(2-(4-[3-ethoxyprop-1-en-1-yl]phenyl)-1H-imidazole-4,5-diyl)bis(N-isopropylaniline)]
- transport of paclitaxel in Caco-2 cells on addition of inhibitor ([1]; 0.01-10 μM inhibitor): not changed
- Hill coefficient, ER of mitoxantrone [2]: 3.61 ± 0.41

Compound: CC(=O)O[C@H]1C(=O)[C@@]2(C)[C@H]([C@H](OC(=O)c3ccccc3)[C@]3(O)C[C@H](OC(=O)[C@H](O)[C@@H](NC(=O)c4ccccc4)c4ccccc4)C(C)=C1C3(C)C)[C@]1(OC(C)=O)CO[C@@H]1C[C@@H]2O [paclitaxel]
- t1/2 of paclitaxel ([4]; paclitaxel 5 mg/kg IV, WT mice): 2.38 h
- AUCpv of paclitaxel, mdr1a/1b KO mice versus WT mice ([4]; paclitaxel 20 mg/kg po): 3.3 fold
- AUCsys of paclitaxel, mdr1a/1b KO mice higher than WT mice ([4]; paclitaxel 20 mg/kg po): approximately 2.8 fold
- BA of paclitaxel, mdr1a/1b KO mice versus WT mice ([4]; paclitaxel 20 mg/kg po): 2.5 fold
- Cmax of paclitaxel in portal vein, mdr1a/1b KO mice versus WT mice ([4]; paclitaxel 20 mg/kg po): 3.5 fold
- Cmax of paclitaxel in systemic circulation, mdr1a/1b KO mice versus WT mice ([4]; paclitaxel 20 mg/kg po): 2.7 fold
- FaFg of paclitaxel, mdr1a/1b KO mice versus WT mice ([4]; paclitaxel 20 mg/kg po): 4.0 fold
- BA of paclitaxel ([4]; WT mice): 11.7%
- BA of paclitaxel ([4]; mdr1a/1b KO mice): 29.0%
- FaFg of paclitaxel [4, 14]: 16.6%
- Fh of paclitaxel [4, 14]: 70.6
- FaFg of paclitaxel ([4]; paclitaxel 20 mg/kg po, mdr1a/1b KO mice): 66.3%
- t1/2 of paclitaxel ([4]; paclitaxel 20 mg/kg po, mdr1a/1b KO mice, pv): 1.25 h
- Cmax ([4]; read-out: Cmax of paclitaxel, paclitaxel 20 mg/kg po, mdr1a/1b KO mice, pv): 2520 nM
- V of paclitaxel, mdr1a/1b KO mice versus WT mice ([5]; 10 min): approximately 3.5 fold
- Absorption Rate V of paclitaxel ([5]; 10 min, WT mice, no inhibitor): 15.7 nmol/min/kg
- Cpv of paclitaxel ([5]; 10 min, WT mice, no inhibitor): 439 ± 98 nM
- Cpv − Csys of paclitaxel ([5]; 10 min, WT mice, no inhibitor): 216 ± 80 nM
- Absorption Rate V of paclitaxel ([5]; 10 min, mdr1a/1b KO mice): 54.3 nmol/min/kg
- Cpv of paclitaxel ([5]; 10 min, mdr1a/1b KO mice): 967 ± 191 nM
- Cpv − Csys of paclitaxel ([5]; 10 min, mdr1a/1b KO mice): 749 ± 165 nM
- V of paclitaxel, mdr1a/1b KO mice versus WT mice ([5]; 30 min): approximately 5.1 fold
- Absorption Rate V of paclitaxel ([5]; 30 min, WT mice, no inhibitor): 12.4 nmol/min/kg
- Cpv − Csys of paclitaxel ([5]; 30 min, WT mice, no inhibitor): 165 ± 61 nM
- Absorption Rate V of paclitaxel ([5]; 30 min, mdr1a/1b KO mice): 63.7 nmol/min/kg
- Cpv − Csys of paclitaxel ([5]; 30 min, mdr1a/1b KO mice): 847 ± 144 nM
- AUC ([6]; plasma, iv, 5 mg/kg): 2.66 µM·h
- MRT ([6]; plasma, iv, 5 mg/kg): 1.47 h
- Vd ([6]; plasma, iv, 5 mg/kg): 4.15 L/kg
- clearance ([6]; plasma, iv, 5 mg/kg): 36.7 mL/min/kg
- half-life ([6]; plasma, iv, 5 mg/kg): 2.12 h
- AUC [6, 15]: 6.58 µM·h
- MRT [6, 15]: 2.16 h
- Tmax [6, 15]: 1 h
- k el [6, 15]: 0.000153 s⁻¹
- AUC [6, 16]: 3.09 µM·h
- Cmax [6, 16]: 1180 nM
- MRT [6, 16]: 3.09 h
- Tmax [6, 16]: 1 h
- k el [6, 16]: 9.72e-05 s⁻¹
- half-life ([6]; systemic plasma, po, 20 mg/kg): 2 h
- AUC ([6]; male, plasma, iv, 5 mg/kg): 2.32 µM·h
- MRT ([6]; male, plasma, iv, 5 mg/kg): 1.71 h
- Vd ([6]; male, plasma, iv, 5 mg/kg): 4.32 L/kg
- clearance ([6]; male, plasma, iv, 5 mg/kg): 42 mL/min/kg
- AUC [6, 17]: 2 µM·h
- Cmax [6, 17]: 730 nM
- MRT [6, 17]: 2.51 h
- Tmax [6, 17]: 1 h
- half-life [6, 17]: 1.62 h
- k el [6, 17]: 0.000119 s⁻¹
- AUC [6, 18]: 1.09 µM·h
- Cmax [6, 18]: 442 nM
- MRT [6, 18]: 2.29 h
- Tmax [6, 18]: 1 h
- k el [6, 18]: 0.000139 s⁻¹
- half-life ([6]; male, systemic plasma, po, 20 mg/kg): 1.37 h
- concentration at 10 min ([7]; portal vein plasma): 967 nM
- concentration at 30 min ([7]; portal vein plasma): 1090 ± 118 nM
- concentration at 10 min [7, 19]: 218 ± 100 nM
- concentration at 30 min [7, 19]: 245 ± 69 nM
- concentration at 10 min ([7]; male, portal vein plasma): 439 nM
- concentration at 30 min ([7]; male, portal vein plasma): 328 ± 41 nM
- concentration at 10 min [7, 20]: 223 ± 76 nM
- concentration at 30 min [7, 20]: 135 ± 41 nM

Compound: CC[C@@]1(O)C(=O)OCc2c1cc1n(c2=O)Cc2cc3c(CN(C)C)c(O)ccc3nc2-1 [topotecan]
- concentration at 30 min ([8]; plasma (portal vein), Cpv of topotecan, mdr1a/1b KO mice): 236 ± 30 nM
- concentration at 30 min ([8]; plasma (systemic circulation, abdominal vein), Csys of topotecan, bcrp KO mice): 398 ± 88 nM
- concentration at 30 min ([8]; plasma (systemic circulation, abdominal vein), Csys of topotecan, mdr1a/1b KO mice): 207 ± 28 nM
- concentration at 30 min ([8]; portal vein plasma, Cpv of topotecan, bcrp KO mice): 469 nM
- concentration at 30 min ([8]; male, plasma (systemic circulation, abdominal vein), Csys of topotecan, WT mice, no inhibitor): 179 ± 25 nM
- concentration at 30 min ([8]; male, portal vein plasma, Cpv of topotecan, WT mice, no inhibitor): 196 ± 29 nM
- V of topotecan, bcrp KO mice versus WT mice ([8]; 30 min): approximately 4.1 fold
- V of topotecan, bcrp KO mice versus mdr1a/1b KO mice ([8]; 30 min): ~2.4 fold
- Absorption Rate V of topotecan ([8]; 30 min, WT mice, no inhibitor): 1.29 nmol/min/kg
- Cpv − Csys of topotecan ([8]; 30 min, WT mice, no inhibitor): 17.1 ± 5.7 nM
- Absorption Rate V of topotecan ([8]; 30 min, bcrp KO mice): 5.30 nmol/min/kg
- Cpv of topotecan ([8]; 30 min, bcrp KO mice): 469 ± 64 nM
- Cpv − Csys of topotecan ([8]; 30 min, bcrp KO mice): 70.5 ± 20 nM
- Absorption Rate V of topotecan ([8]; 30 min, mdr1a/1b KO mice): 2.17 nmol/min/kg
- Cpv − Csys of topotecan ([8]; 30 min, mdr1a/1b KO mice): 28.9 ± 8.4 nM

Compound: lucifer yellow
- Papp,AB [9]: 0.1 ×10⁻⁶ cm/s

More lines, main results first:

- Hill coefficient, ER of paclitaxel ([1]; Caco-2 monolayers): 1.68 ± 0.38
- IC50 [1, 10]: 871 ± 277 nM
- IC50 [1, 11]: 4500 ± 84 nM
- IC50 [1, 12]: 2680 ± 53 nM
Compound: COc1cc(C(=O)C(=O)N2CCCC[C@H]2C(=O)OC(CCCc2cccnc2)CCCc2cccnc2)cc(OC)c1OC [VX-710, (S)-N-(2-Oxo-2-(3,4,5-trimethoxyphenyl)-acetyl)piperidine-2-carboxylic acid 1,7-bis(3-pyridyl)-4-heptyl ester]
- Hill coefficient, ER of mitoxantrone [2]: 0.46 ± 0.12
- IC50 ([2]; IC50 on ER of mitoxantrone, 50% decrease of efflux ratio): 1640 ± 520 nM
- IC50 [2, 13]: 2680 ± 31 nM

- Hill coefficient, ER of paclitaxel ([1]; Caco-2 monolayers): 3.41 ± 0.28
- basal-to-apical transport of paclitaxel ([1]; Caco-2 monolayers): significantly decreased
- IC50 [1, 10]: 46 ± 19 nM
- IC50 [1, 11]: 64 ± 40 nM
- IC50 [1, 12]: 234 ± 61 nM
Compound: COc1cc2c(cc1OC)CN(CCc1ccc(NC(=O)c3cc(OC)c(OC)cc3NC(=O)c3cnc4ccccc4c3)cc1)CC2 [XR9576, N-(2-([(4-(2-[3,4-Dihydro-6,7-dimethoxy-2(1H)-isoquinolinyl]ethyl)phenyl)amino]carbonyl)-4,5-dimethoxyphenyl)-3-quinolinecarboxamide]
- IC50 for P-gp-mediated Hoechst 33342 transport lower than that for BCRP-mediated Hoechst 33342 transport [3]: approximately 20.1 fold
- Hill coefficient, ER of mitoxantrone [2]: 0.44 ± 0.05
- IC50 [2, 13]: 1000 ± 45 nM
- IC50 ([2]; read-out: IC50 on ER of mitoxantrone, 50% decrease of efflux ratio): 531 ± 162 nM
